Here are results for three compounds from ChEMBL document CHEMBL3046063, “Synthesis and antimicrobial activity of 5-chloroindoline-2,3-dione derivatives” (2012).

Each structure is given as a SMILES string. Converted amounts (≈) assume the structure as drawn.

What all share (assay type): functional
The test system of one assay is Bacillus spizizenii. The assay is described as follows: Antimicrobial activity against Bacillus subtilis subsp. spizizenii ATCC 6633 after 24 hr by broth dilution method. To be noted: ATCC 6633, 24 h. For orientation: In broth dilution the organism is exposed to a series of concentrations in liquid medium.
The subject of assay [1] is Staphylococcus epidermidis. The assay is described as follows: Antimicrobial activity against Staphylococcus epidermidis ATCC 12228 after 24 hr by broth dilution method. To be noted: ATCC 12228, 24 h.
Another assay relates to Micrococcus luteus. Put plainly: Antimicrobial activity against Micrococcus luteus ATCC 4698 after 24 hr by broth dilution method. To be noted: ATCC 4698, 24 h.
A further assay relates to Staphylococcus aureus. Put plainly: Antimicrobial activity against Staphylococcus aureus ATCC 25923 after 24 hr by broth dilution method. As to conditions: ATCC 25923, 24 h.
The next assay relates to Staphylococcus hominis. The assay is described as follows: Antimicrobial activity against Staphylococcus hominis ATCC 27844 after 24 hr by broth dilution method. As to conditions: ATCC 27844, 24 h.
A further assay has as its system Bacillus pumilus. Put plainly: Antimicrobial activity against Bacillus pumilus ATCC 14884 after 24 hr by broth dilution method. To be noted: ATCC 14884, 24 h.
The subject of the next assay is Bacillus cereus. Put plainly: Antimicrobial activity against Bacillus cereus ATCC 11778 after 24 hr by broth dilution method. As to conditions: ATCC 11778, 24 h.
Another assay has as its system Proteus vulgaris. Put plainly: Antimicrobial activity against Proteus vulgaris ATCC 13315 after 24 hr by broth dilution method. As to conditions: ATCC 13315, 24 h.
In another assay the test system is Proteus mirabilis. Put plainly: Antimicrobial activity against Proteus mirabilis ATCC 49565 after 24 hr by broth dilution method. As to conditions: ATCC 49565, 24 h.
A further assay relates to Salmonella typhi. Put plainly: Antimicrobial activity against Salmonella enterica subsp. enterica serovar Typhi ATCC 19430 after 24 hr by broth dilution method. To be noted: ATCC 19430, 24 h.
The next assay relates to Klebsiella pneumoniae. Put plainly: Antimicrobial activity against Klebsiella pneumoniae ATCC 13883 after 24 hr by broth dilution method. To be noted: ATCC 13883, 24 h.
A further assay concerns Escherichia coli. The assay is described as follows: Antimicrobial activity against Escherichia coli ATCC 25922 after 24 hr by broth dilution method. To be noted: ATCC 25922, 24 h.
The test system of a further assay is Pseudomonas aeruginosa. The assay is described as follows: Antimicrobial activity against Pseudomonas aeruginosa ATCC 10145 after 24 hr by broth dilution method. To be noted: ATCC 10145, 24 h.
The next assay concerns Aspergillus niger. The assay is described as follows: Antimicrobial activity against Aspergillus niger ATCC 9142 after 24 hr by broth dilution method. To be noted: ATCC 9142, 24 h.
The test system of a further assay is Aspergillus awamori. The assay is described as follows: Antimicrobial activity against Aspergillus awamori ATCC 22342 after 24 hr by broth dilution method. To be noted: ATCC 22342, 24 h.
For the next assay, the system named is Candida albicans. The assay is described as follows: Antimicrobial activity against Candida albicans ATCC 10231 after 24 hr by broth dilution method. As to conditions: ATCC 10231, 24 h.
In the next assay the test system is Alternaria alternata. The assay is described as follows: Antimicrobial activity against Alternaria alternata ATCC 66868 after 24 hr by broth dilution method. As to conditions: ATCC 66868, 24 h.
For another assay, the system named is Microsporum canis. Put plainly: Antimicrobial activity against Arthroderma otae ATCC 11622 after 24 hr by broth dilution method. As to conditions: ATCC 11622, 24 h.
The subject of the next assay is Rhizoctonia solani. The assay is described as follows: Antimicrobial activity against Rhizoctonia solani ATCC 76131 after 24 hr by broth dilution method. To be noted: ATCC 76131, 24 h.
The next assay concerns Trichophyton longifusum. Put plainly: Antimicrobial activity against Trichophyton longifusum ATCC 22397 after 24 hr by broth dilution method. To be noted: ATCC 22397, 24 h.
For a further assay, the system named is Fusarium solani. Put plainly: Antimicrobial activity against Fusarium solani ATCC 38136 after 24 hr by broth dilution method. To be noted: ATCC 38136, 24 h.
The next assay has as its system Trichoderma viride. Put plainly: Antimicrobial activity against Hypocrea rufa ATCC 52440 after 24 hr by broth dilution method. To be noted: ATCC 52440, 24 h.
Another assay has as its system Aspergillus flavus. Put plainly: Antimicrobial activity against Aspergillus flavus ATCC 15517 after 24 hr by broth dilution method. As to conditions: ATCC 15517, 24 h.
A further assay relates to Aspergillus fumigatus. Put plainly: Antimicrobial activity against Aspergillus fumigatus after 24 hr by broth dilution method.

One may read the MIC as the lowest concentration found to suppress growth. `O=C1Nc2ccc(Cl)cc2/C1=N/N1C(=O)CSC1c1ccccc1` (configuration not stated): the MIC against Bacillus spizizenii was 75 µg/mL (≈ 210 µM); in [1], 37.5 µg/mL (≈ 105 µM); with Micrococcus luteus it was 37.5 µg/mL (≈ 105 µM); against Staphylococcus aureus it was 37.5 µg/mL (≈ 105 µM); with Staphylococcus hominis, 75 µg/mL (≈ 210 µM); with Bacillus pumilus it was 75 µg/mL (≈ 210 µM). In addition, the MIC with Bacillus cereus stood at 37.5 µg/mL (≈ 105 µM); against Proteus vulgaris, 75 µg/mL (≈ 210 µM); against Proteus mirabilis, 75 µg/mL (≈ 210 µM); against Salmonella typhi it was 75 µg/mL (≈ 210 µM); in the assay on Klebsiella pneumoniae, 37.5 µg/mL (≈ 105 µM); against Escherichia coli it was 37.5 µg/mL (≈ 105 µM). Besides, the MIC with Pseudomonas aeruginosa amounted to 37.5 µg/mL (≈ 105 µM); against Aspergillus niger it was 18.8 µg/mL (≈ 52.4 µM); in the assay on Aspergillus awamori, 18.8 µg/mL (≈ 52.4 µM); against Candida albicans it was 9.37 µg/mL (≈ 26.2 µM); in the assay with Alternaria alternata it was 37.5 µg/mL (≈ 105 µM); with Microsporum canis, 37.5 µg/mL (≈ 105 µM). The MIC with Rhizoctonia solani was determined as 37.5 µg/mL (≈ 105 µM); in the assay with Trichophyton longifusum, 18.8 µg/mL (≈ 52.4 µM); with Fusarium solani, 18.8 µg/mL (≈ 52.4 µM); against Trichoderma viride, 37.5 µg/mL (≈ 105 µM); against Aspergillus flavus it was 37.5 µg/mL (≈ 105 µM); against Aspergillus fumigatus, 18.8 µg/mL (≈ 52.4 µM).

Regarding `O=C1Nc2ccc(Cl)cc2/C1=N/N1C(=O)CSC1c1ccccc1Cl` (configuration not stated), the MIC against Bacillus spizizenii came to 300 µg/mL (≈ 765 µM); in [1], 150 µg/mL (≈ 382 µM); with Micrococcus luteus, 300 µg/mL (≈ 765 µM); in the assay on Staphylococcus aureus, 300 µg/mL (≈ 765 µM); against Staphylococcus hominis, 150 µg/mL (≈ 382 µM); in the assay on Bacillus pumilus it was 150 µg/mL (≈ 382 µM). The MIC was determined as 150 µg/mL (≈ 382 µM) against Bacillus cereus; 300 µg/mL (≈ 765 µM) against Proteus vulgaris; 300 µg/mL (≈ 765 µM) against Proteus mirabilis; 150 µg/mL (≈ 382 µM) with Salmonella typhi; 150 µg/mL (≈ 382 µM) in the assay on Klebsiella pneumoniae; 150 µg/mL (≈ 382 µM) in the assay on Escherichia coli. Besides, the MIC was 150 µg/mL (≈ 382 µM) against Pseudomonas aeruginosa; 75 µg/mL (≈ 191 µM) against Aspergillus niger; 150 µg/mL (≈ 382 µM) in the assay on Aspergillus awamori; 150 µg/mL (≈ 382 µM) against Candida albicans; 150 µg/mL (≈ 382 µM) in the assay with Alternaria alternata; 75 µg/mL (≈ 191 µM) against Microsporum canis. Further, the MIC against Rhizoctonia solani was 75 µg/mL (≈ 191 µM); in the assay with Trichophyton longifusum, 150 µg/mL (≈ 382 µM); against Fusarium solani it was 150 µg/mL (≈ 382 µM); against Trichoderma viride, 75 µg/mL (≈ 191 µM); against Aspergillus flavus, 150 µg/mL (≈ 382 µM); in the assay on Aspergillus fumigatus, 150 µg/mL (≈ 382 µM).

For `O=C1Nc2ccc(Cl)cc2/C1=N/N1C(=O)CSC1c1ccc(Cl)cc1` (configuration not stated), the MIC in the assay on Bacillus spizizenii stood at 37.5 µg/mL (≈ 95.6 µM); in [1] it was 18.8 µg/mL (≈ 47.8 µM); against Micrococcus luteus, 18.8 µg/mL (≈ 47.8 µM); against Staphylococcus aureus, 18.8 µg/mL (≈ 47.8 µM); in the assay with Staphylococcus hominis, 9.37 µg/mL (≈ 23.9 µM); in the assay with Bacillus pumilus, 9.37 µg/mL (≈ 23.9 µM). The MIC with Bacillus cereus turned out to be 9.37 µg/mL (≈ 23.9 µM); against Proteus vulgaris it was 37.5 µg/mL (≈ 95.6 µM); in the assay with Proteus mirabilis it was 18.8 µg/mL (≈ 47.8 µM); against Salmonella typhi, 9.37 µg/mL (≈ 23.9 µM); against Klebsiella pneumoniae, 18.8 µg/mL (≈ 47.8 µM); against Escherichia coli it was 9.37 µg/mL (≈ 23.9 µM). Also, the MIC against Pseudomonas aeruginosa came to 9.37 µg/mL (≈ 23.9 µM); in the assay with Aspergillus niger, 4.68 µg/mL (≈ 11.9 µM); in the assay with Aspergillus awamori, 9.37 µg/mL (≈ 23.9 µM); in the assay with Candida albicans, 4.68 µg/mL (≈ 11.9 µM); against Alternaria alternata, 4.68 µg/mL (≈ 11.9 µM); with Microsporum canis, 4.68 µg/mL (≈ 11.9 µM). The MIC in the assay with Rhizoctonia solani worked out at 9.37 µg/mL (≈ 23.9 µM); with Trichophyton longifusum, 4.68 µg/mL (≈ 11.9 µM); against Fusarium solani, 9.37 µg/mL (≈ 23.9 µM); against Trichoderma viride, 9.37 µg/mL (≈ 23.9 µM); against Aspergillus flavus, 4.68 µg/mL (≈ 11.9 µM); in the assay on Aspergillus fumigatus it was 4.68 µg/mL (≈ 11.9 µM).
